Assay results published in US20070293493A1, “OXAZOLIDINONE ANTIBIOTICS AND DERIVATIVES THEREOF” (priority 2003, published 2007).
≈ marks a conversion by molar mass, not a printed value. Like-named read-outs stand apart in the source and are kept apart here.

Assays:
Type in all cases: cell-based
[1] = tested on: Enterococcus faecium VRQR (vancomycin resistant, quinolone resistant); test: MIC, agar dilution method, Mueller-Hinton agar with 5% defibrinated horse blood; details: 35° C., 5% CO2, 24 hours
Experimental: (§1) The following in vitro results were obtained based on an agar dilution method except for C. pneumoniae. The activity is presented as the minimum inhibitory concentration (MIC).
(§2) Streptococci and enterococci were tested on Mueller-Hinton agar supplemented with 5% defibrinated horse blood, using an approximate inoculum of 1×10^4 cfu/spot an incubation temperature of 35° C. in an atmosphere of 5% CO2 for 24 hours. The MIC was defined as the lowest concentration at which no visible bacterial growth was observed.

[2] = tested on: Streptococcus pneumoniae IID553; test: as above; details: 35° C., 5% CO2, 24 hours
Experimental: as §1, §2

[3] = tested on: Streptococcus pneumoniae PRQR (penicillin resistant, quinolone resistant); test: as above; details: 35° C., 5% CO2, 24 hours
Experimental: as §1, §2

[4] = tested on: Streptococcus pyogenes IID692; test: as above; details: 35° C., 5% CO2, 24 hours
Experimental: as §1, §2

[5] = tested on: Moraxella catarrhalis ATCC25238; test: MIC, agar dilution method, Mueller-Hinton agar; details: 35° C., 24 hours
Experimental: as §1
(§3) S. aureus and M. catarrhalis were tested on Mueller-Hinton agar, using an approximate inoculum of 1×10^4 cfu/spot an incubation temperature of 35° C. for 24 hours. The MIC was defined as the lowest concentration at which no visible bacterial growth was observed.

[6] = tested on: Staphylococcus aureus CR (chloramphenicol resistant); test: MIC, agar dilution method, Mueller-Hinton agar; details: 35° C., 24 hours
Experimental: as §1, §3

[7] = tested on: Staphylococcus aureus MR (methicillin resistant); test: MIC, agar dilution method, Mueller-Hinton agar; details: 35° C., 24 hours
Experimental: as §1, §3

[8] = tested on: Staphylococcus aureus Smith; test: MIC, agar dilution method, Mueller-Hinton agar; details: 35° C., 24 hours
Experimental: as §1, §3

Compound | MIC ([1]; read-out: MIC) | MIC ([2]; read-out: MIC) | MIC ([3]; read-out: MIC) | MIC ([4]; read-out: MIC) | MIC ([5]; read-out: MIC) | MIC ([6]; read-out: MIC) | MIC ([7]; read-out: MIC) | MIC ([8]; read-out: MIC) | MIC [1] | MIC [2] | MIC [3] | MIC [4] | MIC [5] | MIC [6] | MIC [7] | MIC [8]
N[C@@H]1[C@H]2CN(c3c(F)cc(N4C[C@H](Cn5ccnn5)OC4=O)cc3F)C[C@@H]12 [example 2, 1-[5(R)-3-[4-[(1α,5α,6α)-6-Amino-3-azabicyclo[3.1.0]hexan-3-yl]-3,5-difluorophenyl]-2-oxooxazolidin-5-ylmethyl]-1,2,3-triazole] | 1 µg/mL (≈ 2.66 µM) | 0.25 µg/mL (≈ 0.664 µM) | 0.25 µg/mL (≈ 0.664 µM) | 0.25 µg/mL (≈ 0.664 µM) | 1 µg/mL (≈ 2.66 µM) | 2 µg/mL (≈ 5.31 µM) | 0.25 µg/mL (≈ 0.664 µM) | 0.125 µg/mL (≈ 0.332 µM) |  |  |  |  |  |  |  | 
N#C[C@@H]1[C@H]2C=C(c3ccc(N4C[C@H](Cn5ccnn5)OC4=O)cc3F)C[C@@H]12 [example 8, 1-[5(R)-3-[4-[(1α,5α,6α)-6-Cyanobicyclo[3.1.0]hex-2-en-3-yl]-3-fluorophenyl]-2-oxooxazolidin-5-ylmethyl]-1,2,3-triazole] |  |  |  |  |  |  |  |  | 0.25 µg/mL (≈ 0.684 µM) | 0.5 µg/mL (≈ 1.37 µM) | 0.25 µg/mL (≈ 0.684 µM) | 0.125 µg/mL (≈ 0.342 µM) | 1 µg/mL (≈ 2.74 µM) | 1 µg/mL (≈ 2.74 µM) | 0.06 µg/mL (≈ 0.164 µM) | 0.125 µg/mL (≈ 0.342 µM)
